The results in this text go back to patent publication US20250145596A1, “HETEROCYCLIC GLP-1 AGONISTS” (Gasherbrum Bio, Inc., priority 2022, published 2025).

Each structure is given as a SMILES string. Where only a bound is given, the exact number is not on record here.

The target of this test is T1, GLP-1 Receptor (Homo sapiens, UniProt P43220).
T1 construct: host or cells: HEK293/CRE-Luc
T1 sequence (P43220 24-463): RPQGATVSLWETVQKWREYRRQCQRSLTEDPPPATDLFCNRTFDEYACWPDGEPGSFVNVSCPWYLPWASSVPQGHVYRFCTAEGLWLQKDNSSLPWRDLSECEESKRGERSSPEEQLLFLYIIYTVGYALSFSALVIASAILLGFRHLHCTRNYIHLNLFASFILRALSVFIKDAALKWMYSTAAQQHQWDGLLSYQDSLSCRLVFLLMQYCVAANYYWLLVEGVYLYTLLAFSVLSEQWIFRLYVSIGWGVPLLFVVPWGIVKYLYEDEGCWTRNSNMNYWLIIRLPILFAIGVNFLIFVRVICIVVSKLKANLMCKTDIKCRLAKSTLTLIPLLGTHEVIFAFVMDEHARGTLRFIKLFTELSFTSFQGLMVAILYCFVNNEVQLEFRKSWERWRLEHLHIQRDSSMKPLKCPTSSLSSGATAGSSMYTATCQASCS
The experiment in a line: GLP-1R agonist cAMP stimulation assay. It counts as cell-based. Conditions: HEK293/CRE-Luc cell line stably expressing the GLP-1 Receptor; 30 min at 37° C.; cAMP dynamic 2 Kit. The procedure: Activation of GLP-1 receptor is known to stimulate cyclic AMP (cAMP) production in cells which indicates primary coupling to the Gas subunit of the G protein heterotrimeric complex.
To optimize functional activity directed toward Gas coupling, a HEK293/CRE-Luc cell line developed by HDB stably expressing the GLP-1 Receptor was used. 200× concentration of compound working solutions were prepared (Agilent Technologies Bravo) with ½ log serial dilution in 384-well Echo LDV plate (Labcyte, Cat #LP-0200). 50 nL/well 200× concentration of compound working solutions were moved to 384-well white low volume plate (Greiner, Cat #784075) using Labcyte ECHO550. 1×10^5 cells/mL HEK293/GLPlR/CRE-LUC (HD Biosciences) cell suspensions prepared with assay buffer [DPBS containing 0.5 mM IBMX (Sigma, Cat #15879) and 0.1% BSA (GENVIEW, Cat #FA016-100g)], 10 μL cell suspensions were added to each well of previous generated assay plate which already contains 50 nL compound at 200× concentration using ThermoFisher Multidrop Combi (1000 cells/well). Seal the plate and incubate at 37° C. with 5% CO2 for 30 min.
After incubation the cAMP assay signal was generated using cAMP dynamic 2 Kit (Cisbio). 5 μL cAMP-d2 working solution was added to each well, followed with 5 μL Anti-cAMP antibody-cryptate working solution added to each well using ThermoFisher Multidrop Combi. Incubate at room temperature for 1 hour protected from light. Read the fluorescence at 665 and 615 nm with Reader PerkinElmer EnVision.
% Activity=100%×(mean RLU of test sample mean RLU of vehicle control)/(mean RLU of MAX control−mean RLU of vehicle control))
In the case of `N#CC1(Cc2cc(-c3nnc(C(F)(F)F)[nH]3)cnc2CN2CCC(c3cccc4c3OC(c3ccc(Cl)cc3F)CO4)CC2)CC1` (centres unmarked) [Example 38, 1-{[2-({4-[3-(4-chloro-2-fluorophenyl)-2,3-dihydro-1,4-benzodioxin-5-yl]piperidin-1-yl}methyl)-5-[5-(trifluoromethyl)-4H-1,2,4-triazol-3-yl]pyridin-3-yl]methyl}cyclopropane-1-carbonitrile], the EC50 (usually the concentration that produces a half-maximal response) is under 1 nM.
Regarding `C[C@]1(c2ccc(Cl)cc2F)Oc2cccc(C3CCN(Cc4ncc(-c5noc(=O)[nH]5)cc4CS(C)(=O)=O)CC3)c2O1` [Example 58, 3-[6-({4-[(2S)-2-(4-chloro-2-fluorophenyl)-2-methyl-2H-1,3-benzodioxol-4-yl]piperidin-1-yl}methyl)-5-(methanesulfonylmethyl)pyridin-3-yl]-2,5-dihydro-1,2,4-oxadiazol-5-one], the EC50 is under 1 nM.
`CC1(c2ccc(F)cc2Cl)Oc2cccc(C3CCN(Cc4ncc(-c5nnc(C(F)(F)F)[nH]5)cc4CC4(C#N)CC4)CC3)c2O1` (centres unmarked) [Example 4, 1-{[2-({4-[2-(2-chloro-4-fluorophenyl)-2-methyl-2H-1,3-benzodioxol-4-yl]piperidin-1-yl}methyl)-5-[5-(trifluoromethyl)-4H-1,2,4-triazol-3-yl]pyridin-3-yl]methyl}cyclopropane-1-carbonitrile]: the EC50 is under 1 nM.
`N#CC1(Cc2cc(-c3nnc(C(F)(F)F)[nH]3)cnc2CN2CCC(c3cccnc3OCc3ccc(Cl)cc3F)CC2)CC1` [Example 37, 1-({2-[(4-{2-[(4-chloro-2-fluorophenyl)methoxy]pyridin-3-yl}piperidin-1-yl)methyl]-5-[5-(trifluoromethyl)-4H-1,2,4-triazol-3-yl]pyridin-3-yl}methyl)cyclopropane-1-carbonitrile] gave an EC50 of under 1 nM.
In turn, `Cc1ccc(C2(C)Oc3cccc(C4CCN(Cc5ncc(-c6nnc(C(F)(F)F)[nH]6)cc5CC5(C#N)CC5)CC4)c3O2)cn1` (centres unmarked) [Example 11, 1-{[2-({4-[2-Methyl-2-(6-methylpyridin-3-yl)-2H-1,3-benzodioxol-4-yl]piperidin-1-yl}methyl)-5-[5-(trifluoromethyl)-4H-1,2,4-triazol-3-yl]pyridin-3-yl]methyl}cyclopropane-1-carbonitrile] registered an EC50 of under 1 nM.
Consider `C[C@]1(c2ccc(Cl)cc2F)Oc2cccc(C3CCN(Cc4ncc(-c5nnc(C(F)(F)F)[nH]5)cc4CC4(C#N)CC4)CC3F)c2O1` (single isomer, unassigned) [Example 27], for which the EC50 is under 1 nM.
In turn, `C[C@]1(c2ccc(Cl)cn2)Oc2cccc(C3CCN(Cc4ncc(-c5nnc(C(F)(F)F)[nH]5)cc4CC4(C#N)CC4)CC3F)c2O1` (single isomer, unassigned) [Example 26] showed an EC50 of under 1 nM.
`C[C@]1(c2ccc(Cl)cc2F)Oc2cccc(C3CCN(Cc4ncc(C5CC5C(=O)O)cc4CC4(C#N)CC4)CC3)c2O1` (stereo partly drawn) [Example 67, 2-(6-((4-((S)-2-(4-chloro-2-fluorophenyl)-2-methylbenzo[d][1,3]dioxol-4-yl)piperidin-1-yl)methyl)-5-((1-cyanocyclopropyl)methyl)pyridin-3-yl)cyclopropane-1-carboxylic acid] had an EC50 of 1 to 100 nM.
Molecule `Cc1ccc(C2(C)Oc3cccc(C4=CCN(Cc5ncc(-c6nnc(C(F)(F)F)[nH]6)cc5CC5(C#N)CC5)CC4)c3O2)c(Cl)c1` (centres unmarked) [Example 65, 1-((2-((4-(2-(2-chloro-4-methylphenyl)-2-methylbenzo[d][1,3]dioxol-4-yl)-3,6-dihydropyridin-1(2H)-yl)methyl)-5-(5-(trifluoromethyl)-4H-1,2,4-triazol-3-yl)pyridin-3-yl)methyl)cyclopropane-1-carbonitrile] displayed an EC50 of under 1 nM.
As for `CC1(c2ccc(Cl)cc2Cl)Oc2cccc(C3CCN(Cc4ncc(-c5nnc(C(F)(F)F)[nH]5)cc4CC4(C#N)CC4)CC3)c2O1` (single isomer, unassigned) [Example 2, 1-{[2-({4-[2-(2,4-dichlorophenyl)-2-methyl-2H-1,3-benzodioxol-4-yl]piperidin-1-yl}methyl)-5-[5-(trifluoromethyl)-4H-1,2,4-triazol-3-yl]pyridin-3-yl]methyl}cyclopropane-1-carbonitrile], the EC50 is under 1 nM.
In the case of `CC1(c2ccc(Cl)cc2F)Oc2cccc(C3CCN(Cc4ncc(-c5nnn[nH]5)cc4C(F)(F)F)CC3)c2O1` (centres unmarked) [Example 98], the EC50 is over 100 nM.
In turn, `CC1(c2ccc(F)cc2F)Oc2cccc(C3CCN(Cc4ncc(-c5nnc(C(F)(F)F)[nH]5)cc4CC4(C#N)CC4)CC3)c2O1` (centres unmarked) [Example 5, 1-{[2-({4-[2-(2,4-difluorophenyl)-2-methyl-2H-1,3-benzodioxol-4-yl]piperidin-1-yl}methyl)-5-[5-(trifluoromethyl)-4H-1,2,4-triazol-3-yl]pyridin-3-yl]methyl}cyclopropane-1-carbonitrile] yielded an EC50 of under 1 nM.
Regarding `N#CC1(Cc2cc(-c3nnc(C(F)(F)F)[nH]3)cnc2CN2CCN(c3ccc(Cl)c(OCc4ccc(Cl)cc4F)c3)CC2)CC1` [Example 42, 1-({2-[(4-{4-chloro-3-[(4-chloro-2-fluorophenyl)methoxy]phenyl}piperazin-1-yl)methyl]-5-[5-(trifluoromethyl)-4H-1,2,4-triazol-3-yl]pyridin-3-yl}methyl)cyclopropane-1-carbonitrile], the EC50 was 1 to 100 nM.
As to `N#CC1(Cc2cc(-c3nnc(C(F)(F)F)[nH]3)cnc2CN2CCC(Oc3ccnc(Cc4ccc(Cl)cc4F)n3)CC2)CC1` [Example 86], the EC50 fell in the range of 1 to 100 nM.
The result for `C[C@]1(c2ccc(Cl)cc2F)Oc2cccc(C3CCN(Cc4ncc(-c5nnc(C(F)F)[nH]5)cc4CC4(C#N)CC4)CC3)c2O1` [Example 17, 1-{[2-({4-[(2S)-2-(4-chloro-2-fluorophenyl)-2-methyl-2H-1,3-benzodioxol-4-yl]piperidin-1-yl}methyl)-5-[5-(difluoromethyl)-4H-1,2,4-triazol-3-yl]pyridin-3-yl]methyl}cyclopropane-1-carbonitrile] reads under 1 nM; that for `CN1CCC(Cc2cc(-c3nnc(C(F)(F)F)[nH]3)cnc2CN2CCC(c3cccc4c3O[C@@](C)(c3ccc(Cl)cc3F)O4)CC2)C1=O` (some centres unmarked) [Example 92], 1 to 100 nM; that for `CC1(c2ccc(Cl)cc2F)Oc2cc(F)cc(C3CCN(Cc4ncc(-c5nnc(C(F)(F)F)[nH]5)cc4CC4(C#N)CC4)CC3)c2O1` (single isomer, unassigned) [Example 14, 1-{[2-({4-[2-(4-chloro-2-fluorophenyl)-6-fluoro-2-methyl-2H-1,3-benzodioxol-4-yl]piperidin-1-yl}methyl)-5-[5-(trifluoromethyl)-4H-1,2,4-triazol-3-yl]pyridin-3-yl]methyl}cyclopropane-1-carbonitrile], under 1 nM.
`Cc1cc(Cl)ccc1C1(C)Oc2cccc(C3CCN(Cc4ncc(-c5nnc(C(F)(F)F)[nH]5)cc4CC4(C#N)CC4)CC3)c2O1` (centres unmarked) [Example 7, 1-((2-((4-(2-(4-chloro-2-methylphenyl)-2-methylbenzo[d][1,3]dioxol-4-yl)piperidin-1-yl)methyl)-5-(5-(trifluoromethyl)-4H-1,2,4-triazol-3-yl)pyridin-3-yl)methyl)cyclopropane-1-carbonitrile] had an EC50 of under 1 nM.
Under `N#CC1(Cc2cc(-c3nnc(C(F)(F)F)[nH]3)cnc2CN2CCC(c3cccc4c3OC[C@@H](c3ccc(Cl)cc3)O4)CC2)CC1` [Example 39, 1-{[2-({4-[(2R)-2-(4-chlorophenyl)-2,3-dihydro-1,4-benzodioxin-5-yl]piperidin-1-yl}methyl)-5-[5-(trifluoromethyl)-4H-1,2,4-triazol-3-yl]pyridin-3-yl]methyl}cyclopropane-1-carbonitrile] stands 1 to 100 nM; under `N#CC1(Cc2cc(-c3noc(=O)[nH]3)cnc2CN2CCC(c3cccc(OCc4ccc(Cl)cc4F)n3)CC2)CC1` [Example 82], 1 to 100 nM.
For `Cc1cc(-c2cnn(C)c(=O)c2)cnc1CN1CCC(c2cccc(OCc3ccc(Cl)cc3F)n2)CC1` [Example 100], the EC50 was over 100 nM.
The molecule `CC1(c2ccc(Cl)cc2F)Oc2cc(F)cc(C3CCN(Cc4ncc(-c5nnc(C(F)(F)F)[nH]5)cc4CC4(C#N)CC4)CC3)c2O1` (single isomer, unassigned) [Example 13, 1-{[2-({4-[2-(4-chloro-2-fluorophenyl)-6-fluoro-2-methyl-2H-1,3-benzodioxol-4-yl]piperidin-1-yl}methyl)-5-[5-(trifluoromethyl)-4H-1,2,4-triazol-3-yl]pyridin-3-yl]methyl}cyclopropane-1-carbonitrile] came in with an EC50 of under 1 nM.
As to `COCC1(Cc2cc(-c3nnc(C(F)(F)F)[nH]3)cnc2CN2CCC(c3cccc4c3OC(C)(c3ccc(Cl)cn3)O4)CC2)CC1` (centres unmarked) [Example 85], the EC50 lay within 1 to 100 nM.
